Biological target: PI3Kα (Homo sapiens (Human), UniProt P42336)
Assay: Inhibition of PI3Kα (ADP-Glo kinase activity assay, ATP to ADP conversion)
Assay type: biochemical
Conditions: 25 μM PIP2:PS, 60 μM ATP, 30 min reaction, luminescence
Method: Quantification of ATP to ADP conversion as a measure of PI3Kα activity. Active PI3Kα (Life Technologies), in the presence or absence of PI3Kα inhibitor, was reacted with PIP2:PS (Life Technologies), a substrate specifically optimized for use with Class I PI3 kinases, and ultrapure ATP (Promega). The conversion of ATP to ADP by PI3Kα was measured as luminescence signal via Promega ADP-Glo kinase activity assay. Assay was validated using published PI3Kα inhibitors LY294002, PI-103, BYL719, GDC0198 and also DMSO vehicle control.
Compounds were prepared at 100× final concentration as a 12-point, 1:3 serial-dilution in DMSO series, with DMSO control as 12th point. Compound was then diluted in (25 mM HEPES pH 7.5, 1 mM EGTA, 0.3% CHAPS) prior to addition to PI3Kα. Active PI3Kα diluted to 0.24 ng/μL (1.1 nM) in (50 mM HEPES pH 7.5, 6 mM MgCl2, 1 mM EGTA, 200 mM NaCl, 0.03% CHAPS, 8 mM DTT) was incubated with compound for 0 hr and 3 hr prior to the start of the reaction. 25 μM PIP2:PS and 60 μM ATP were diluted from stock in (25 mM HEPES pH 7.5, 1 mM EGTA, 0.3% CHAPS) and added to initiate the PI3Kα reaction. Reaction time was 30 minutes. ATP to ADP conversion was measured in Luminescence Counts on DTX880 Plate Reader (Beckman Coulter). Compound IC50s were reported using GraphPad Prism software. Analytical method was non-linear regression, 4-parameter curve fit with bottom fit to validated PI3Kα inhibitor reference controls and no top fit (floating top).

Sequence of PI3Kα (P42336 whole entry): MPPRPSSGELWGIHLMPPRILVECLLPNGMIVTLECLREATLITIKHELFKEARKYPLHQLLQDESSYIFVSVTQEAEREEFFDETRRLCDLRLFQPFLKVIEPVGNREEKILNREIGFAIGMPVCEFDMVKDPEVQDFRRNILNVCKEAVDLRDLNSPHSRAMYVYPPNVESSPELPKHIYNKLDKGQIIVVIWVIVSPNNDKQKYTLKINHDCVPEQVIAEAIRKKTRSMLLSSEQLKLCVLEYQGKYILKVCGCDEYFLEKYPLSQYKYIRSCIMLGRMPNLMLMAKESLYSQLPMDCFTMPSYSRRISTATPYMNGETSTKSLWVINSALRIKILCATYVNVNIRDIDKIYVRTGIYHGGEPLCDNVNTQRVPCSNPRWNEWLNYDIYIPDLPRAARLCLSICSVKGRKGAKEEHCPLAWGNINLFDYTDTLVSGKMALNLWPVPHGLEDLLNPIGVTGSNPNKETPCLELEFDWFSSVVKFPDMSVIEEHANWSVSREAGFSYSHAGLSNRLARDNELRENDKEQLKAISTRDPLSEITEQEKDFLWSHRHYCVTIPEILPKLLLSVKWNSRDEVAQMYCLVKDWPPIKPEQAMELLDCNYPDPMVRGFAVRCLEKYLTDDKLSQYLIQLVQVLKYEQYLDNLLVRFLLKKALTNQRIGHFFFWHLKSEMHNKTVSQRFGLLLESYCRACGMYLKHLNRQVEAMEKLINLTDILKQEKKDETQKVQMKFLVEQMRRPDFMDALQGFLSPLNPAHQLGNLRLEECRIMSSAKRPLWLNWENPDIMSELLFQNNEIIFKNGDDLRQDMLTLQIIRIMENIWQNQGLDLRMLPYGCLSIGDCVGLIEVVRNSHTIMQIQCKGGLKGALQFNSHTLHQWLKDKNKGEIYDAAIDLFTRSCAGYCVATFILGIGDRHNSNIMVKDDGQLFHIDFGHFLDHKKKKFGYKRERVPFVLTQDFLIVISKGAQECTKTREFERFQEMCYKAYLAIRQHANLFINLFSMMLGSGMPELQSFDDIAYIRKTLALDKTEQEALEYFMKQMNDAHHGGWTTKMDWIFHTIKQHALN
Sequence of PI3Kα (P27986 whole entry partner): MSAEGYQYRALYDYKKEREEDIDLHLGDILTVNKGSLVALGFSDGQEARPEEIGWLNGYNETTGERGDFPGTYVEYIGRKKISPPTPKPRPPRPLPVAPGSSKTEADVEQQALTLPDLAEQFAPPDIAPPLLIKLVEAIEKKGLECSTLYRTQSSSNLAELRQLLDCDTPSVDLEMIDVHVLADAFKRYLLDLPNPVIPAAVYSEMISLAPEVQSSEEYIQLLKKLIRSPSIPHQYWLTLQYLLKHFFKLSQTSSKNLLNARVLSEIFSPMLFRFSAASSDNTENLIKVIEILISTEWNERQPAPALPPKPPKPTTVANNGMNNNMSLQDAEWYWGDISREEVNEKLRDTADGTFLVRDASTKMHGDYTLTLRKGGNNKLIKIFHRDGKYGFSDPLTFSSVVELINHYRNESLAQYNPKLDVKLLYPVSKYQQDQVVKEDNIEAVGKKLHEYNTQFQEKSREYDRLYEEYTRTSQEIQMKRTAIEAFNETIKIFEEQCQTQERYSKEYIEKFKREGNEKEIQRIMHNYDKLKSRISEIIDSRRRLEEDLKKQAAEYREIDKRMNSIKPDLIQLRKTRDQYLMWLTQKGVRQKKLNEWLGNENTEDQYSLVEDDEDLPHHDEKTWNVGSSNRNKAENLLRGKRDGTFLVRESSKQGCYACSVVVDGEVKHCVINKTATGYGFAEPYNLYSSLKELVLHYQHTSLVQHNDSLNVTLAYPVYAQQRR

Structure (SMILES) | PI3Ka IC50 [µM]
CC(C)(O)CNc1ccc(S(=O)(=O)c2cc(-c3cnc(N)nc3)cc(N3CCOCC3)c2)cc1 [Compound 37, 1-((4-((3-(2-aminopyrimidin-5-yl)-5-morpholinophenyl)sulfonyl)phenyl)amino)-2-methylpropan-2-ol] | 2.0
Cc1nc(N)ncc1-c1cc(N2CCOCC2)cc(S(=O)(=O)[C@@H]2CCOC2)c1 [Compound 121, (R)-4-methyl-5-(3-morpholino-5-((tetrahydrofuran-3-yl)sulfonyl)phenyl)pyrimidin-2-amine] | 0.84
Nc1ncc(-c2cc(N3CCOCC3)cc(S(=O)(=O)c3ccc(C(F)(F)F)cc3)c2)cn1 [Compound 14, 5-(3-morpholino-5-((4-(trifluoromethyl)phenyl)sulfonyl)phenyl) pyrimidin-2-amine] | 7.3
CC(=O)Nc1ncc(-c2cc(S(=O)(=O)c3ccccc3)cc(N3CCOCC3)n2)cn1 [Compound 145, N-(5-(6-morpholino-4-(phenylsulfonyl)pyridin-2-yl)pyrimidin-2-yl)acetamide] | 0.39
Nc1ncc(-c2cc(N3CCOCC3)cc(S(=O)(=O)C3CNC3)c2)cn1 [Compound 61, 5-(3-(azetidin-3-ylsulfonyl)-5-morpholinophenyl)pyrimidin-2-amine] | 0.50
Nc1cnc(-c2cc(N3CCOCC3)cc(S(=O)(=O)Cc3ccccc3)c2)cn1 [Compound 73, 5-(3-(benzylsulfonyl)-5-morpholinophenyl)pyrazin-2-amine] | 1.5
CC(C)(O)CNc1ccc(CS(=O)(=O)c2cc(-c3cnc(N)nc3)cc(N3CCOCC3)c2)cc1 [Compound 84, 1-((4-(((3-(2-aminopyrimidin-5-yl)-5-morpholinophenyl)sulfonyl)methyl)phenyl)amino)-2-methylpropan-2-ol] | 0.60
O=C1COc2cc(-c3cc(N4CCOCC4)cc(S(=O)(=O)Cc4ccc(F)cc4)c3)ccc2N1 [Compound 42, 7-(3-((4-fluorobenzyl)sulfonyl)-5-morpholinophenyl)-2H-benzo[b][1,4]oxazin-3(4H)-one] | 4.7
Nc1ncc(-c2cc(C(=O)C3CCOC3)cc(N3CCOCC3)n2)cn1 (stereo not drawn) [Compound 149, (2-(2-aminopyrimidin-5-yl)-6-morpholinopyridin-4-yl)(tetrahydrofuran-3-yl)methanone] | 0.0140
COc1nc(N)ccc1-c1cc(N2CCOCC2)cc(S(=O)(=O)Cc2ccc(F)cc2)c1 [Compound 44, 5-(3-((4-fluorobenzyl)sulfonyl)-5-morpholinophenyl)-6-methoxypyridin-2-amine] | 13
Nc1cc(C(F)(F)F)c(-c2cc(N3CCOCC3)cc(S(=O)(=O)c3ccccc3)c2)cn1 [Compound 6, 5-(3-morpholino-5-(phenylsulfonyl)phenyl)-4-(trifluoromethyl)pyridin-2-amine] | 3.8
Nc1ncc(-c2cc(S(=O)(=O)[C@H]3CCOC3)cc(N3CCOCC3)n2)cn1 [Compound 142a, (S)-5-(6-morpholino-4-((tetrahydrofuran-3-yl)sulfonyl)pyridin-2-yl)pyrimidin-2-amine] | 0.0057
Nc1ncc(-c2cc(N3CCOCC3)cc(S(=O)(=O)Cc3ccccc3)c2)c(C(F)(F)F)n1 [Compound 33, 5-(3-(benzylsulfonyl)-5-morpholinophenyl)-4-(trifluoromethyl)pyrimidin-2-amine] | 0.98
COc1cncc(-c2cc(N3CCOCC3)cc(S(=O)(=O)Cc3ccc(F)cc3)c2)c1 [Compound 55, 4-(3-((4-fluorobenzyl)sulfonyl)-5-(5-methoxypyridin-3-yl)phenyl)morpholine] | 12
Nc1ncc(-c2cc(N3CCOCC3)cc(S(=O)(=O)C3CN(C4CCOCC4)C3)c2)cn1 [Compound 66, 5-(3-morpholino-5-((1-(tetrahydro-2H-pyran-4-yl)azetidin-3-yl)sulfonyl)phenyl)pyrimidin-2-amine] | 1.3
Nc1ccc(-c2cc(N3CCOCC3)cc(S(=O)(=O)[C@@H]3CCOC3)c2)c(C(F)(F)F)n1 [Compound 105, (R)-5-(3-morpholino-5-((tetrahydrofuran-3-yl)sulfonyl)phenyl)-6-(trifluoromethyl)pyridin-2-amine] | 1.7
Nc1cnc(-c2cc(N3CCOCC3)cc(S(=O)(=O)C3CCOC3)c2)cn1 (stereo not drawn) [Compound 74, 5-(3-morpholino-5-((tetrahydrofuran-3-yl)sulfonyl)phenyl)pyrazin-2-amine] | 1.0
Nc1ncc(-c2cc(N3CCOCC3)cc(S(=O)(=O)CC3CCC(F)(F)CC3)c2)cn1 [Compound 64, 5-(3-(((4,4-difluorocyclohexyl)methyl)sulfonyl)-5-C21H26F2N4O3Smorpholinophenyl) pyrimidin-2-amine] | 1.1
CC(C)(C)OC(=O)N1CCN(c2cc(-c3cnc(N)nc3)cc(S(=O)(=O)c3ccccc3)c2)CC1 [Compound 24, tert-butyl 4-(3-(2-aminopyrimidin-5-yl)-5-(phenylsulfonyl)phenyl)piperazine-1-carboxylate] | 21
COc1ccc(-c2cc(N3CCOCC3)cc(S(=O)(=O)c3ccccc3)c2)cn1 [Compound 5, 4-(3-(6-methoxypyridin-3-yl)-5-(phenylsulfonyl)phenyl)morpholine] | 12
COc1ccc(-c2cc(N3CCOCC3)cc(S(=O)(=O)Cc3ccc(F)cc3)c2)cc1N [Compound 43, 3′-((4-fluorobenzyl)sulfonyl)-4-methoxy-5′-morpholino-[1,1′-biphenyl]-3-amine] | 11
CC(C)(C)OC(=O)N1CC(S(=O)(=O)c2cc(-c3cnc(N)cn3)cc(N3CCOCC3)c2)C1 [Compound 69, tert-butyl 3-((3-(5-aminopyrazin-2-yl)-5-morpholinophenyl)sulfonyl)azetidine-1-carboxylate] | 0.54
COc1ncc(-c2cc(N3CCOCC3)cc(S(=O)(=O)c3ccccc3)c2)cn1 [Compound 2, 4-(3-(2-methoxypyrimidin-5-yl)-5-(phenylsulfonyl)phenyl)morpholine] | 5.0
Nc1ncc(-c2cc(N3CCOCC3)cc(S(=O)(=O)c3ccc(N4CCOCC4)cc3)c2)cn1 [Compound 36, 5-(3-morpholino-5-((4-morpholinophenyl)sulfonyl)phenyl)pyrimidin-2-amine] | 1.1
CC(C)N1CC(S(=O)(=O)c2cc(-c3cnc(N)nc3)cc(N3CCOCC3)c2)C1 [Compound 65, 5-(3-((1-isopropylazetidin-3-yl)sulfonyl)-5-morpholinophenyl)pyrimidin-2-amine] | 0.87
Nc1ncc(-c2cc(S(=O)(=O)C3CCOc4ccccc43)cc(N3CCOCC3)n2)cn1 (racemic) [Compound 143, 5-(4-(chroman-4-ylsulfonyl)-6-morpholinopyridin-2-yl)pyrimidin-2-amine] | 0.0017
Nc1ncc(-c2cc(C3CCOc4ccccc43)cc(N3CCOCC3)n2)cn1 (stereo not drawn) [Compound 141, 5-(4-(chroman-4-yl)-6-morpholinopyridin-2-yl)pyrimidin-2-amine] | 0.062
